Measurements reported in ChEMBL document CHEMBL1201862, “PubChem BioAssay data set” (2004).
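Five concentrations, 48 hours, 96-well plates. Abbreviation: GI50, concentration required for 50% inhibition of growth.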 Calls of active or inactive are those of the source. Cut-off read from the data, not from the text of the source: active = GI50 up to about 1.1 µM and inactive = higher.

Tests used:
Assay in all cases: inhibition of tumour cell growth, NCI panel, 48 h
[1] = tested on: MDA-N
[2] = tested on: NCI-H522
[3] = tested on: SF-539
[4] = tested on: DU-145
[5] = tested on: SK-OV-3
[6] = tested on: A498
[7] = tested on: OVCAR-3
[8] = tested on: LOX IMVI
[9] = tested on: UO-31
[10] = tested on: KM12
[11] = tested on: SF-295
[12] = tested on: UACC-257
[13] = tested on: UACC-62
[14] = tested on: SK-MEL-5
[15] = tested on: MOLT-4
[16] = tested on: CCRF-CEM
[17] = tested on: MDA-MB-435
[18] = tested on: M14
[19] = tested on: Malme-3M
[20] = tested on: RPMI-8226

| Compound | GI50 [1] | GI50 [2] | GI50 [3] | GI50 [4] | GI50 [5] | GI50 [6] | GI50 [7] | GI50 [8] | GI50 [9] | GI50 [10] | GI50 [11] | GI50 [12] | GI50 [13] | GI50 [14] | GI50 [15] | GI50 [16] | GI50 [17] | GI50 [18] | GI50 [19] | GI50 [20] |
| --- | --- | --- | --- | --- | --- | --- | --- | --- | --- | --- | --- | --- | --- | --- | --- | --- | --- | --- | --- | --- |
| COP(=O)(/C=C/c1cc(C(=O)OCc2ccccc2)n(S(=O)(=O)c2ccccc2)c1)OC | > 100 µM (inactive) | > 100 µM (inactive) | > 100 µM (inactive) | > 100 µM (inactive) | > 100 µM (inactive) | > 100 µM (inactive) | > 100 µM (inactive) | > 100 µM (inactive) | > 100 µM (inactive) | > 100 µM (inactive) | > 100 µM (inactive) | > 100 µM (inactive) | > 100 µM (inactive) | > 100 µM (inactive) | > 100 µM (inactive) | > 100 µM (inactive) | > 100 µM (inactive) | > 100 µM (inactive) | > 100 µM (inactive) | – |
| O=C1CC2(CCC(O)(c3cccs3)C(C(=O)c3cccs3)C2)C(=O)c2ccccc2N1 (stereo not drawn) | > 100 µM (inactive) | – | > 100 µM (inactive) | 67.3 µM (inactive) | > 100 µM (inactive) | > 100 µM (inactive) | 63.8 µM (inactive) | 89.3 µM (inactive) | > 100 µM (inactive) | – | > 100 µM (inactive) | > 100 µM (inactive) | > 100 µM (inactive) | 11.8 µM (inactive) | 29 µM (inactive) | 22.5 µM (inactive) | > 100 µM (inactive) | > 100 µM (inactive) | > 100 µM (inactive) | – |
| CN1B(c2ccccc2)N(C)C(=O)N(C)C1=O | > 100 µM (inactive) | – | > 100 µM (inactive) | > 100 µM (inactive) | > 100 µM (inactive) | – | – | – | 20.5 µM (inactive) | > 100 µM (inactive) | > 100 µM (inactive) | > 100 µM (inactive) | > 100 µM (inactive) | > 100 µM (inactive) | – | > 100 µM (inactive) | > 100 µM (inactive) | > 100 µM (inactive) | > 100 µM (inactive) | > 100 µM (inactive) |
| CC1Cc2c(cc(N)nc2Br)NC1=O (stereo not drawn) | 46.1 µM (inactive) | > 100 µM (inactive) | > 100 µM (inactive) | > 100 µM (inactive) | > 100 µM (inactive) | – | > 100 µM (inactive) | > 100 µM (inactive) | > 100 µM (inactive) | > 100 µM (inactive) | > 100 µM (inactive) | > 100 µM (inactive) | > 100 µM (inactive) | 85.1 µM (inactive) | 43.1 µM (inactive) | > 100 µM (inactive) | 62.4 µM (inactive) | > 100 µM (inactive) | > 100 µM (inactive) | > 100 µM (inactive) |
| CC(=O)/C(=C/NC(=S)N/N=C1\C(=O)Nc2ccccc21)C(=O)Nc1ccccc1C | > 100 µM (inactive) | – | > 100 µM (inactive) | 47.1 µM (inactive) | > 100 µM (inactive) | 57.7 µM (inactive) | 75.2 µM (inactive) | 63.8 µM (inactive) | 44.3 µM (inactive) | 98.9 µM (inactive) | > 100 µM (inactive) | > 100 µM (inactive) | > 100 µM (inactive) | 65.3 µM (inactive) | > 100 µM (inactive) | – | > 100 µM (inactive) | > 100 µM (inactive) | – | – |
| CCOC(=O)Nc1cc2c(c(N)n1)N=C(c1ccc3ccccc3c1)CN2 | < 0.01 µM (active) | 0.0769 µM (active) | 0.08 µM (active) | 0.101 µM (active) | 0.2 µM (active) | 0.861 µM (active) | 0.0494 µM (active) | 0.0559 µM (active) | 0.301 µM (active) | 0.0715 µM (active) | 0.0281 µM (active) | 0.815 µM (active) | 0.0328 µM (active) | < 0.0164 µM (active) | 0.0226 µM (active) | 0.015 µM (active) | < 0.01 µM (active) | 0.617 µM (active) | 0.292 µM (active) | – |
| CCOc1ncn(-c2ccc(NC(=S)Nc3cnccn3)cc2)n1 | > 10 µM (inactive) | > 10 µM (inactive) | > 10 µM (inactive) | > 10 µM (inactive) | > 10 µM (inactive) | – | > 10 µM (inactive) | – | > 10 µM (inactive) | > 10 µM (inactive) | > 10 µM (inactive) | > 10 µM (inactive) | > 10 µM (inactive) | – | > 10 µM (inactive) | > 10 µM (inactive) | > 10 µM (inactive) | > 10 µM (inactive) | > 10 µM (inactive) | – |
| COC(=O)[C@H](Cc1ccccc1)NC(=O)c1ccc(CNC(=O)/C=C/c2cccc(Oc3ccccc3)c2)cc1 | 4.16 µM (inactive) | – | – | 40.6 µM (inactive) | 53.5 µM (inactive) | 23.1 µM (inactive) | 11.8 µM (inactive) | – | 26.7 µM (inactive) | 40.8 µM (inactive) | 44.1 µM (inactive) | 6.27 µM (inactive) | 7.91 µM (inactive) | 16.3 µM (inactive) | 9.71 µM (inactive) | 11 µM (inactive) | 5.35 µM (inactive) | 11.9 µM (inactive) | 15.1 µM (inactive) | 28.3 µM (inactive) |
